Here are results for 16 molecules from patent US20100227853A1, “INHIBITORS OF CYCLIC AMP PHOSPHODIESTERASES” (Trustees of Boston College, priority 2008, published 2010).

One assay deals with T1, PDE4B3 (Mus musculus, UniProt Q8VBU5).
T1 construct: targets used in the assays are full-length proteins (as opposed to simply the catalytic domain); expressed in transfected cells; host or cells: Schizosaccharomyces pombe, PDE gene integrated in place of cgs2
T1 sequence (Q8VBU5 1-721): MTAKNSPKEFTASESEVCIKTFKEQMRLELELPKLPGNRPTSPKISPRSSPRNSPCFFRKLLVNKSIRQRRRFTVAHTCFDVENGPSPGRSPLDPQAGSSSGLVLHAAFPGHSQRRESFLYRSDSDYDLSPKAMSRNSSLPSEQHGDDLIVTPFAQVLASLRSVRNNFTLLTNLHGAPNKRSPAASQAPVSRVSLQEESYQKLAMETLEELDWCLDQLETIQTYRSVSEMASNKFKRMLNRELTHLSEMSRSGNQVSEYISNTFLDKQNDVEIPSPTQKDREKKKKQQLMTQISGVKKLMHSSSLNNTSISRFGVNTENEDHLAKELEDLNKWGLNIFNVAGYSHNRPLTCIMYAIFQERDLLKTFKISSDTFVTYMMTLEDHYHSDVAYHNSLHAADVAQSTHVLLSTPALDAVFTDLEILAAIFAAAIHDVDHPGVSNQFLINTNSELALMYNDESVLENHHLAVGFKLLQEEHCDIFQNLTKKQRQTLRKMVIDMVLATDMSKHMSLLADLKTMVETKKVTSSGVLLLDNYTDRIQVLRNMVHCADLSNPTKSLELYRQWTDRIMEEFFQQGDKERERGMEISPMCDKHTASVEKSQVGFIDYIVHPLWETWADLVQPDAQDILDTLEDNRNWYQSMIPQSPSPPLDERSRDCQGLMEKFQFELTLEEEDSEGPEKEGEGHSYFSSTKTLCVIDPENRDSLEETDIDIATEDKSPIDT
Nature of the assay: 5FOA growth assay in fission yeast strain expressing PDE4B3. The class given is cell-based, Murine. The settings on record: high throughput 5FOA growth screen. How it is done: (§1) High throughput drug screens were carried out at the Broad Institute's Chemical Biology Program screening facility (Broad Institute, Cambridge, Mass.). Depending upon the strain, cultures were pregrown to exponential phase in EMM complete medium containing from 0.5 to 2.5 mM cAMP to repress fbp1-ura4 transcription. […] Starting cell concentrations ranged from 0.5×10^5 to 4×10^5 cells/ml depending on the screening strain. […] Other positive control dishes contained 5 mM cAMP in the 5FOA medium. Cultures were grown for 48 hours at 30° C., sealed in an airtight container with moist paper towels to prevent evaporation. Optical densities (OD600) of cultures were measured using a microplate reader. Bioinformatic analysis of the results to determine composite Z scores was performed as previously described^30, 31.
(§2) To determine whether the 5FOA growth phenotype could be exploited for high throughput drug screening, strains expressing PDE2A, PDE4A, PDE4B, or PDE8A were pre-grown in EMM medium containing cAMP and then transferred to 5FOA medium in 384 well microtiter plates in the presence or absence of cAMP. OD600 measurements were taken after 48 hours incubation at 30° C.
(§3) Cells were pregrown in EMM medium [MP Biomedicals (Solon, Ohio), 3% glucose, filter-sterilized to avoid carmelization, which would introduce variability into the optical density of the medium] containing from 0 mM to 2.5 mM cAMP (or either 0.5 mM or 1.0 mM cGMP). This was to repress expression of the fbp1-ura4 reporter prior to exposure of cells to 5FOA medium. Cells were grown at 30° C. to exponential phase (approximately 10^7 cells/ml). […] Starting cell concentrations ranged from 0.5×10^5 to 4×10^5 cells/ml depending on the screening strain. […] Other positive control dishes contained 5 mM cAMP in the 5FOA medium for PDEs that lack appropriate control compounds. Cultures were grown for 48 hours at 30° C., sealed in an airtight container with moist paper towels to prevent evaporation. Optical densities (OD600) of cultures were measured using a microplate reader. Bioinformatic analysis of the results to determine composite Z scores was performed as previously described (1, 3).

The next assay addresses T2, PDE4A1 (Mus musculus, UniProt O89084).
T2 construct: targets used in the assays are full-length proteins (as opposed to simply the catalytic domain); expressed in transfected cells; host or cells: Schizosaccharomyces pombe, PDE gene integrated in place of cgs2
T2 sequence (O89084 1-610 isoform O89084-2): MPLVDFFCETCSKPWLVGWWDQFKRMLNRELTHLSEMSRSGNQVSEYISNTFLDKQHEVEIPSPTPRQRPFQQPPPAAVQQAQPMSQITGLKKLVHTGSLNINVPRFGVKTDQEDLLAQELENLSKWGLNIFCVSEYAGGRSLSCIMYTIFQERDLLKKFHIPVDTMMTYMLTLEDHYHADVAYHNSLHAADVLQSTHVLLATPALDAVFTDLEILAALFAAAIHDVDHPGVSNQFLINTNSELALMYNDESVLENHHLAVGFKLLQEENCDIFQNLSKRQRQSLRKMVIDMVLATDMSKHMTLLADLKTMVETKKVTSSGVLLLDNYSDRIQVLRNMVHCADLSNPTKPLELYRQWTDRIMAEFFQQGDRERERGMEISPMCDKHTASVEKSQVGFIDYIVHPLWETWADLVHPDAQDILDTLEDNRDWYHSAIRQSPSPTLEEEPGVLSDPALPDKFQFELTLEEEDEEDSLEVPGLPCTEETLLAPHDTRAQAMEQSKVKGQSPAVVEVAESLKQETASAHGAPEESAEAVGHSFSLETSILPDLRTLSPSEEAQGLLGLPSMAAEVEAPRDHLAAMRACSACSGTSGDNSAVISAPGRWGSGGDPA
Nature of the assay: 5FOA growth assay (high throughput screen, ED50) in fission yeast strain expressing PDE4A1. The class given is cell-based. The settings on record: high throughput 5FOA growth screen; greater than 8.53 = statistically-significant inhibitor. How it is done: as §1, §2, §3

The target of the next assay is PDE7A (Homo sapiens, UniProt Q13946). Nature of the assay: 5FOA growth assay in fission yeast strain expressing PDE7A. The class given is cell-based. On the set-up: targets used in the assays are full-length proteins (as opposed to simply the catalytic domain); expressed in transfected cells; host or cells: Schizosaccharomyces pombe, PDE gene integrated in place of cgs2. The settings on record: high throughput 5FOA growth screen. The protocol: PDE inhibition allows growth in 5FOA medium as measured by optical density after 48 hours incubation at 30° C. Compound BC12 and six structural analogs were tested for growth stimulation.
Cells were pregrown in EMM medium [MP Biomedicals (Solon, Ohio), 3% glucose, filter-sterilized to avoid carmelization, which would introduce variability into the optical density of the medium] containing from 0 mM to 2.5 mM cAMP (or either 0.5 mM or 1.0 mM cGMP). This was to repress expression of the fbp1-ura4 reporter prior to exposure of cells to 5FOA medium. Cells were grown at 30° C. to exponential phase (approximately 10^7 cells/ml). Cells were collected by centrifugation and resuspended in 5FOA medium, and 25 μl were transferred to 384-well microtiter dishes (untreated, with flat clear bottoms) that had been pre-filled with 25 μl 5FOA medium and pre-pinned with 100 nl of compounds (stock solutions were generally 10 mM). Starting cell concentrations ranged from 0.5×10^5 to 4×10^5 cells/ml depending on the screening strain. […] Other positive control dishes contained 5 mM cAMP in the 5FOA medium for PDEs that lack appropriate control compounds. Cultures were grown for 48 hours at 30° C., sealed in an airtight container with moist paper towels to prevent evaporation. Optical densities (OD600) of cultures were measured using a microplate reader. Bioinformatic analysis of the results to determine composite Z scores was performed as previously described (1, 3).

Sequence of PDE7A (Q13946 whole entry, the tested form may be a part): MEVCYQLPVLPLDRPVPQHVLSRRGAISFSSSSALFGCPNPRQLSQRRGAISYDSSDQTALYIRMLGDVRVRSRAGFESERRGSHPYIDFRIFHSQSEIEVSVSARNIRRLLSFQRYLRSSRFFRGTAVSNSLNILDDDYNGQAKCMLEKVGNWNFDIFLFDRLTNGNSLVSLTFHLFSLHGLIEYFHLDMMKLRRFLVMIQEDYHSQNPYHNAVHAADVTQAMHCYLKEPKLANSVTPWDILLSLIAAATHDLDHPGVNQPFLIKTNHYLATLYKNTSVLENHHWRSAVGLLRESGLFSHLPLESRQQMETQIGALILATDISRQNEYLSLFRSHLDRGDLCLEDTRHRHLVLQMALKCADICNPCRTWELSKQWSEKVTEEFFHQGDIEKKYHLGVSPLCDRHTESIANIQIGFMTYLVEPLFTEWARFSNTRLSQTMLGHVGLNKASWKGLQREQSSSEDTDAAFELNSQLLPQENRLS

`Cc1sc2ncnc(NCC(=O)O)c2c1C` [Compound 2085F18]: the “Composite Z score, PDE4B3” value on PDE4B3 is 0.8136. The “Composite Z score, PDE4A1” value on PDE4A1 is recorded as 0.3168. In addition, at PDE7A, the “Composite Z score, PDE7A” value is given as −1.774.
Take `Cc1sc2ncnc(N3CCN(c4cccc(C(F)(F)F)c4)CC3)c2c1C` [Compound 2074G03]: the “Composite Z score, PDE4B3” value at PDE4B3 was −1.188. The “Composite Z score, PDE4A1” value at PDE4A1 came out at 11.67. Besides, the “Composite Z score, PDE7A” value at PDE7A is listed as −1.925.
For `O=C(c1ccco1)N1CCN(c2ncnc3sc4c(c23)CCCC4)CC1` [Compound 2083J20], the “Composite Z score, PDE4B3” value on PDE4B3 turned out to be 5.6256. At PDE4A1, the “Composite Z score, PDE4A1” value worked out at 18.511. Further, on PDE7A, the “Composite Z score, PDE7A” value worked out at 0.8496.
As for `Cc1sc2ncnc(NCc3cccnc3)c2c1C` [Compound 2081F17], the “Composite Z score, PDE4B3” value on PDE4B3 stood at 1.6993. Further, at PDE4A1, the “Composite Z score, PDE4A1” value is given as 0.1374. Also, the “Composite Z score, PDE7A” value on PDE7A is reported as 0.439.
The matching figures for `c1ccc(CNc2ncnc3sc4c(c23)CCCC4)cc1` [Compound 2077J03]: 1.9013, 1.1575 and 1.1908.
On to `c1nc(NC2CCCC2)c2c3c(sc2n1)CCC3` [2084 E21], for which, at PDE4B3, the “Composite Z score, PDE4B3” value was 0.593. For the same molecule, the “Composite Z score, PDE4A1” value at PDE4A1 came out at 29.047. In addition, the “Composite Z score, PDE7A” value on PDE7A came out at 18.891.
For the molecule `O=C(Nc1ncnc2sc3c(c12)CCC3)c1cccs1` [Compound 2084I06], the “Composite Z score, PDE4B3” value on PDE4B3 is on record as 0.9421. Besides, the “Composite Z score, PDE4A1” value on PDE4A1 stood at 7.8022. In addition, the “Composite Z score, PDE7A” value at PDE7A came to 12.419.
With `CCN(CC)CCCNc1ncnc2sc3c(c12)CC(C)CC3` (stereo not drawn) [Compound 2083L15], the “Composite Z score, PDE4B3” value at PDE4B3 is listed as −0.877. Moreover, the “Composite Z score, PDE4A1” value at PDE4A1 was 1.9931. In addition, at PDE7A, the “Composite Z score, PDE7A” value was −1.18.
The matching figures for `c1ccc(CN2CCN(c3ncnc4sc5c(c34)CCCCC5)CC2)cc1` [Compound 2074A07]: 0.8366, −0.348 and 0.7527.
The matching figures for `Cc1sc2ncnc(N(C)C)c2c1C` [Compound 2085O15]: −1.519, 1.0991 and −0.627.
Consider `O=C(Nc1ncnc2sc3c(c12)CCCCC3)c1ccco1` [Compound 2084G06], for which the “Composite Z score, PDE4B3” value at PDE4B3 is on record as 0.884. The “Composite Z score, PDE4A1” value at PDE4A1 worked out at 6.4203. Also, on PDE7A, the “Composite Z score, PDE7A” value is −1.808.
On to `CC(C)CNc1ncnc2sc3c(c12)CCCC3` [Compound 2077P12], for which the “Composite Z score, PDE4B3” value on PDE4B3 came to 9.3964. At PDE4A1, the “Composite Z score, PDE4A1” value was 1.6797. Moreover, the “Composite Z score, PDE7A” value on PDE7A is on record as 17.695.
Consider `Cc1sc2ncnc(N3CCN(CCO)CC3)c2c1C` [Compound 2084A21], for which the “Composite Z score, PDE4B3” value at PDE4B3 was 0.6718. Also, the “Composite Z score, PDE4A1” value at PDE4A1 turned out to be 0.1942. The “Composite Z score, PDE7A” value at PDE7A was 0.0079.
For the molecule `COc1ccc(C(=O)Nc2ncnc3sc4c(c23)CCCC4)cc1OC` [Compound 1414F18], the “Composite Z score, PDE4B3” value at PDE4B3 was −0.382. In addition, at PDE4A1, the “Composite Z score, PDE4A1” value came to 9.1375.
`COC(=O)Cc1nc(N2CCC(C)CC2)c2c3c(sc2n1)CCCC3` [Compound 1392J18]: the “Composite Z score, PDE4B3” value on PDE4B3 came out at 0.7173. Further, the “Composite Z score, PDE4A1” value on PDE4A1 was 10.795.
With `CCC(CO)Nc1nc(C)nc2sc3c(c12)CCC3` (stereo not drawn) [Compound 1422J17], the “Composite Z score, PDE4B3” value at PDE4B3 is −0.936. Further, the “Composite Z score, PDE4A1” value at PDE4A1 worked out at 0.1866.
